Test results from PubChem BioAssay AID248 (DTP/NCI, 2004).
Values joined by “and” are separate entries in the source; they are usually repeats but may differ in a detail not shown here. Equal values may be shown once. Toxic doses and inconclusive results are not listed. No stated cut-off is given here; in the data, active means T/C of 150% or more; inactive means T/C below 125%.

System: L1210 leukemia ip in BDF1 mice, survival T/C
Assay: NCI In Vivo Anticancer Drug Screen. Data for tumor model L1210 Leukemia (intraperitoneal) in B6D2F1 (BDF1) mice
Conditions: endpoint: mean survival time, higher = longer survival
How it was run: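 Mice bearing the transplanted tumor received compound or vehicle. Survival of the treated group was divided by that of the vehicle-treated control group to give the ratio.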

[1] = dose: 100.0 mg/kg/injection, schedule: Q04DX003 (ip), vehicle: saline
[2] = dose: 200.0 mg/kg/injection, schedule: Q04DX003 (ip), vehicle: saline
[3] = dose: 400.0 mg/kg/injection, schedule: Q04DX003 (ip), vehicle: saline
[4] = dose: 100.0 mg/kg/injection, schedule: Q01DX001 (ip), vehicle: saline
[5] = dose: 200.0 mg/kg/injection, schedule: Q01DX001 (ip), vehicle: saline
[6] = dose: 400.0 mg/kg/injection, schedule: Q01DX001 (ip), vehicle: saline
[7] = dose: 100.0 mg/kg/injection, schedule: Q04DX003 (ip), vehicle: saline with Tween-80
[8] = dose: 200.0 mg/kg/injection, schedule: Q04DX003 (ip), vehicle: saline with Tween-80
[9] = dose: 400.0 mg/kg/injection, schedule: Q04DX003 (ip), vehicle: saline with Tween-80
[10] = dose: 100.0 mg/kg/injection, schedule: Q04DX002 (ip), vehicle: Klucel (hydroxypropylcellulose) (HPC)
[11] = dose: 200.0 mg/kg/injection, schedule: Q04DX002 (ip), vehicle: Klucel (hydroxypropylcellulose) (HPC)
[12] = dose: 400.0 mg/kg/injection, schedule: Q04DX002 (ip), vehicle: Klucel (hydroxypropylcellulose) (HPC)
[13] = dose: 100.0 mg/kg/injection, schedule: Q01DX001 (ip), vehicle: carboxymethylcellulose (CMC)
[14] = dose: 200.0 mg/kg/injection, schedule: Q01DX001 (ip), vehicle: carboxymethylcellulose (CMC)
[15] = dose: 400.0 mg/kg/injection, schedule: Q01DX001 (ip), vehicle: carboxymethylcellulose (CMC)
[16] = dose: 100.0 mg/kg/injection, schedule: Q04DX003 (ip), vehicle: Klucel (hydroxypropylcellulose) (HPC)
[17] = dose: 200.0 mg/kg/injection, schedule: Q04DX003 (ip), vehicle: Klucel (hydroxypropylcellulose) (HPC)
[18] = dose: 400.0 mg/kg/injection, schedule: Q04DX003 (ip), vehicle: Klucel (hydroxypropylcellulose) (HPC)

Measured: T/C

O=C(c1ccccc1)C(Cc1ccccc1)C(Cc1ccccc1)c1ccccc1 (stereo not drawn)
inactive: dose: 100.0 mg/kg/injection, schedule: Q04DX003 (ip), vehicle: acetone 93 % of control | dose: 200.0 mg/kg/injection, schedule: Q04DX003 (ip), vehicle: acetone 98 % of control | dose: 400.0 mg/kg/injection, schedule: Q04DX003 (ip), vehicle: acetone 92 % of control

CN(C)c1ccccc1CN1CCCN(Cc2ccccc2N(C)C)C1c1ccncc1
inactive: dose: 6.0 mg/kg/injection, schedule: Q12HX018 (ip), vehicle: other 96 % of control | dose: 12.0 mg/kg/injection, schedule: Q12HX018 (ip), vehicle: other 103 % of control | dose: 24.0 mg/kg/injection, schedule: Q12HX018 (ip), vehicle: other 101 % of control

O=C(Oc1c(Cl)cc([N+](=O)[O-])cc1[N+](=O)[O-])Sc1ccccc1
inactive: dose: 100.0 mg/kg/injection, schedule: Q04DX002 (ip), vehicle: saline with Tween-80 103 % of control | dose: 200.0 mg/kg/injection, schedule: Q04DX002 (ip), vehicle: saline with Tween-80 100 % of control | dose: 400.0 mg/kg/injection, schedule: Q04DX002 (ip), vehicle: saline with Tween-80 100 % of control

O=c1oc2ccccc2c(=S)n1-c1ccccc1
inactive: [1] 105 % of control | [2] 94 % of control | [3] 91 % of control

O=C(CBr)c1ccc(F)cc1
inactive: dose: 2.0 mg/kg/injection, schedule: Q01DX015 (ip), vehicle: carboxymethylcellulose (CMC) 93 % of control | dose: 4.0 mg/kg/injection, schedule: Q01DX015 (ip), vehicle: carboxymethylcellulose (CMC) 105 % of control | dose: 5.0 mg/kg/injection, schedule: Q01DX001 (ip), vehicle: saline 97 % of control | dose: 8.0 mg/kg/injection, schedule: Q01DX015 (ip), vehicle: carboxymethylcellulose (CMC) 88 % of control | dose: 10.0 mg/kg/injection, schedule: Q01DX001 (ip), vehicle: saline 100 % of control | dose: 15.0 mg/kg/injection, schedule: Q01DX015 (ip), vehicle: carboxymethylcellulose (CMC) 97 % of control | dose: 20.0 mg/kg/injection, schedule: Q01DX001 (ip), vehicle: saline 92 % of control | dose: 40.0 mg/kg/injection, schedule: Q01DX001 (ip), vehicle: saline 92 % of control | dose: 80.0 mg/kg/injection, schedule: Q01DX001 (ip), vehicle: saline 97 % of control

O=C(O)O.[Co].[NH-]CC[N-]CC[N-]CC[NH-]
inactive: dose: 50.0 mg/kg/injection, schedule: Q01DX001 (ip), vehicle: saline 97 % of control | [4] 108 % of control | [5] 92 % of control | [6] 100 % of control

CC1=CC(=O)C(CO)=CC1=O
inactive: dose: 0.09 mg/kg/injection, schedule: Q01DX009 (ip), vehicle: saline with Tween-80 93 % of control | dose: 0.18 mg/kg/injection, schedule: Q01DX009 (ip), vehicle: saline with Tween-80 97 % of control | dose: 0.37 mg/kg/injection, schedule: Q01DX009 (ip), vehicle: saline with Tween-80 104 % of control | dose: 3.0 mg/kg/injection, schedule: Q01DX009 (ip), vehicle: other 105 % of control | dose: 3.0 mg/kg/injection, schedule: Q04DX002 (ip), vehicle: other 107 % of control | dose: 6.0 mg/kg/injection, schedule: Q01DX009 (ip), vehicle: other 91 % of control | dose: 6.0 mg/kg/injection, schedule: Q04DX002 (ip), vehicle: other 96 % of control | dose: 12.5 mg/kg/injection, schedule: Q04DX002 (ip), vehicle: other 86 % of control

CC(=O)C(C)=O
inactive: [7] 95 % of control | [8] 101 % of control | [9] 106 % of control

C/C(=N/N(C)C)c1ccc([N+](=O)[O-])cc1
inactive: dose: 100.0 mg/kg/injection, schedule: Q01DX009 (ip), vehicle: saline 113 % of control | dose: 200.0 mg/kg/injection, schedule: Q01DX009 (ip), vehicle: saline 89 % of control

CC(OC(=O)Nc1ccc(S(=O)(=O)NC2CCCCC2)cc1)(c1ccccc1)C1CCCCC1 (stereo not drawn)
inactive: [4] 105 % of control | [5] 105 % of control | [6] 100 % of control

COc1cccc(/C(C)=N\NC(=O)c2ccccc2)c1
inactive: dose: 25.0 mg/kg/injection, schedule: Q04DX003 (ip), vehicle: saline with Tween-80 88 % of control | dose: 50.0 mg/kg/injection, schedule: Q04DX003 (ip), vehicle: saline with Tween-80 90 % of control | [7] 92 % of control

CCCNC(C)(C)C(SS)c1ccc(C(F)(F)F)cc1 (stereo not drawn)
inactive: dose: 12.5 mg/kg/injection, schedule: Q01DX009 (ip), vehicle: other 89 % of control | dose: 12.5 mg/kg/injection, schedule: Q04DX003 (ip), vehicle: other 94 % of control | dose: 25.0 mg/kg/injection, schedule: Q01DX009 (ip), vehicle: other 95 % of control | dose: 25.0 mg/kg/injection, schedule: Q04DX003 (ip), vehicle: other 96 % of control | dose: 50.0 mg/kg/injection, schedule: Q01DX009 (ip), vehicle: other 95 % of control | dose: 50.0 mg/kg/injection, schedule: Q04DX003 (ip), vehicle: other 89 % of control

O=S(=O)(NC(CCl)=NCc1ccccc1)c1ccccc1
inactive: [10] 96 % of control | [11] 100 % of control | [12] 86 % of control

CC(=O)Nc1ccc2c(c1)-c1ccc(F)cc1C2=O
inactive: [13] 96 % of control | [14] 103 % of control | [15] 89 % of control

CN(C)C(=O)C1C2CC3OC(=O)C1C3C2 (stereo not drawn)
inactive: [1] 100 % of control and 104 % of control | [2] 94 % of control and 108 % of control | [3] 100 % of control and 104 % of control

CCOC(=O)C(C)(C)OC(=O)Nc1ccccc1
inactive: [16] 98 % of control | [17] 91 % of control | [18] 98 % of control

N#CC(C#N)=C/C=C/C=C/c1c(Cl)cccc1Cl
inactive: [7] 92 % of control | [8] 103 % of control | [9] 105 % of control

CC(=O)Nc1cc(C)cc(C)c1
inactive: dose: 50.0 mg/kg/injection, schedule: Q01DX001 (ip), vehicle: carboxymethylcellulose (CMC) 105 % of control | [13] 111 % of control | [14] 111 % of control | [15] 105 % of control

CC1(C)CC(C)(c2ccc(-n3c(-c4ccccc4)nc4ccccc4c3=O)cc2)c2ccccc2S1 (stereo not drawn)
inactive: [4] 91 % of control | [5] 91 % of control | [6] 87 % of control

O=C(Nc1cccc([N+](=O)[O-])c1)Nc1cccc(C(F)(F)F)c1
inactive: [10] 101 % of control | [11] 99 % of control | [12] 96 % of control

NC(=O)NC(=O)c1nccnc1C(=O)O
inactive: dose: 100.0 mg/kg/injection, schedule: Q01DX001 (ip), vehicle: water 88 % of control | dose: 200.0 mg/kg/injection, schedule: Q01DX001 (ip), vehicle: water 101 % of control | dose: 400.0 mg/kg/injection, schedule: Q01DX001 (ip), vehicle: water 87 % of control

Oc1ccc2ccc3[nH]cnc3c2c1
inactive: dose: 100.0 mg/kg/injection, schedule: Q01DX009 (ip), vehicle: Klucel (hydroxypropylcellulose) (HPC) 101 % of control | [16] 95 % of control | dose: 200.0 mg/kg/injection, schedule: Q01DX009 (ip), vehicle: Klucel (hydroxypropylcellulose) (HPC) 104 % of control | [17] 95 % of control | dose: 400.0 mg/kg/injection, schedule: Q01DX009 (ip), vehicle: Klucel (hydroxypropylcellulose) (HPC) 97 % of control | [18] 94 % of control

O=C(O)c1cc(C(=O)O)cc([N+](=O)[O-])c1
inactive: dose: 50.0 mg/kg/injection, schedule: Q01DX009 (ip), vehicle: saline with Tween-80 93 % of control | dose: 100.0 mg/kg/injection, schedule: Q01DX009 (ip), vehicle: saline with Tween-80 91 % of control | [7] 95 % of control | [8] 95 % of control
